A word on the pEC50: it is −log10 of the EC50, conventionally taken in molar units.

pEC50: −log10 of the molar value.

Drawing on patent publication US20250282776A1, “Bicyclic TLR7 Agonists and Uses Thereof” (Bristol-Myers Squibb Company, priority 2024, published 2025), this text covers EC50 for 32 molecules.

The target of one test is T1, human TLR7 (hTLR7) (Homo sapiens, UniProt Q9NYK1).
T1 construct: host or cells: HEK-Blue TLR7 cells (engineered human embryonic kidney cells)
T1 sequence (Q9NYK1 27-1049): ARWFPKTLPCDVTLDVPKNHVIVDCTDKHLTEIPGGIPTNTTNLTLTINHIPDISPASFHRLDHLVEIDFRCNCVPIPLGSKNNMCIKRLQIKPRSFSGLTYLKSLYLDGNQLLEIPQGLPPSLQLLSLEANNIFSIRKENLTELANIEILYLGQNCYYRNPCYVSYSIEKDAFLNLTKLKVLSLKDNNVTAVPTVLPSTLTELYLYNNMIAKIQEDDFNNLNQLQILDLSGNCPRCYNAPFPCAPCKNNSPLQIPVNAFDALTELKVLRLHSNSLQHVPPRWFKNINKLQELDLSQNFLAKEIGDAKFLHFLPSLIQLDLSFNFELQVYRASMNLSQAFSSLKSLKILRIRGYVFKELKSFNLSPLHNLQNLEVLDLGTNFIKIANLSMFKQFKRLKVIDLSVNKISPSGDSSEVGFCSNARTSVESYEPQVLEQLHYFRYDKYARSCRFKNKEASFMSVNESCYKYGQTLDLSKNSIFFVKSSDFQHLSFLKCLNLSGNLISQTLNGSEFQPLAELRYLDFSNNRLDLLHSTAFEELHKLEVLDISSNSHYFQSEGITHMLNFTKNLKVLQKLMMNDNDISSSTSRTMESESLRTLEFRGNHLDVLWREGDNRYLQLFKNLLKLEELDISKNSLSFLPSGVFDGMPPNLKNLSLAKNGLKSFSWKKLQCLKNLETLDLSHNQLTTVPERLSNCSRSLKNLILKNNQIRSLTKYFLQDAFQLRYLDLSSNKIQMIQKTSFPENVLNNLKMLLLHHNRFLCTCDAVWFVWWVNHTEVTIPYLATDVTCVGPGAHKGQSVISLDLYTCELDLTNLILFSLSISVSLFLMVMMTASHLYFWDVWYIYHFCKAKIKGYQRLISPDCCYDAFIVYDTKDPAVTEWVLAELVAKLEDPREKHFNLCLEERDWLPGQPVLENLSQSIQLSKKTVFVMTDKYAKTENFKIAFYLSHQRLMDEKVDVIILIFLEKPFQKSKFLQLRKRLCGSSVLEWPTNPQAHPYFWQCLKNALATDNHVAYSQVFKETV
The test can be described thus: Human TLR7 agonist activity assay (HEK-Blue TLR7 SEAP reporter). It is filed as cell-based. The settings on record: HEK-Blue TLR7 cells, 18 h incubation, Quanti-Blue, OD 620 nm, some values average of multiple measurements. A digest of the protocol: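 HEK-Blue TLR7 cells seeded 16-18 h, then exposed to compound for 18 h at 37 °C, 5% CO2. Secreted SEAP read with Quanti-Blue at OD 620 nm after 30 min. EC50 taken as concentration giving half-maximal response between baseline and maximum; some values averaged over repeats.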

The next test concerns the target T2, human TLR8 (hTLR8) (Homo sapiens, UniProt Q9NR97).
T2 construct: expressed in transfected cells
T2 sequence (Q9NR97 27-1041): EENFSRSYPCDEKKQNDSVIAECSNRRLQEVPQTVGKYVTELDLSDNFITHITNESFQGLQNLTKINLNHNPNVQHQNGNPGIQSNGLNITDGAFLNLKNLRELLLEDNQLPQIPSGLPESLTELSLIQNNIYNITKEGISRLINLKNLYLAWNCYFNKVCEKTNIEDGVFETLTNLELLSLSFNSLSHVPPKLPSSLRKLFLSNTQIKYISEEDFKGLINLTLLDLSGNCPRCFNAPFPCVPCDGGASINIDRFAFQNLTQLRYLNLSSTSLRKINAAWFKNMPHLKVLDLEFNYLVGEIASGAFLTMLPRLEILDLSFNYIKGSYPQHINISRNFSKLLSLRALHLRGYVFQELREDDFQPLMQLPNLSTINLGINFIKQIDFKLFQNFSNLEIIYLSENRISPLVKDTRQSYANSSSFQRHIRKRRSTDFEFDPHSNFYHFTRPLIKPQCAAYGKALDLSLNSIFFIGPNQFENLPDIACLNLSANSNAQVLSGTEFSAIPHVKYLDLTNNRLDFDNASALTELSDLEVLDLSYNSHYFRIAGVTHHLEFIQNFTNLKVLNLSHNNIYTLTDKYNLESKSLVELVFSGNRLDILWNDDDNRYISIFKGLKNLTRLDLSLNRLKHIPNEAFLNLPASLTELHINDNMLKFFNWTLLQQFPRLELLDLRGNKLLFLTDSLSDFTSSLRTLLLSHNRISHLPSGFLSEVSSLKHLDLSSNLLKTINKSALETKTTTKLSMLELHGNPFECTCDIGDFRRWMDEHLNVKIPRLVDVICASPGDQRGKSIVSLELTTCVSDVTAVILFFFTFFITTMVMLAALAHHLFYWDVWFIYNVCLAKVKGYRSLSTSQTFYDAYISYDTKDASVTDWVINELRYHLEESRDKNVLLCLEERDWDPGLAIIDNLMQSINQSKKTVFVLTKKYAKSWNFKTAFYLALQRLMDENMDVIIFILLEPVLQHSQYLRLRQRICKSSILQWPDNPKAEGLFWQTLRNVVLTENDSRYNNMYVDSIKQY
The test can be described thus: Human TLR8 agonist activity assay (measured in a similar manner). The settings on record: HEK-Blue TLR cells, SEAP reporter, measured in a similar manner to TLR7; some values average of multiple measurements. The format is cell-based. An outline of the steps: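 Compounds were added to HEK-Blue TLR8 reporter cells, pre-incubated 16-18 h, then treated 18 h at 37° C, 5% CO2. SEAP output was measured with Quanti-Blue (30 min) at OD 620 nm. Some values are averages of multiple measurements.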

On to `CCCCNCc1ccc(Cn2cc3nc(N)nc(N(CCO)CCCC)c3n2)c(C(F)F)c1` [Compound 127], for which the results for the pEC50 on human TLR7 (hTLR7) and at human TLR8 (hTLR8) were 5.74 and 5.62, respectively.

As for `CCCCN(CCO)c1nc(N)nc2cn(Cc3ccc(CNC(C)(C)C)cc3C(F)F)nc12` [Compound 128], the values for the pEC50 at human TLR7 (hTLR7) and on human TLR8 (hTLR8) were 5.92 and 6.20, respectively.

As to `CCCCN(CCO)c1nc(N)nc2cn(Cc3ccc(CNCC4CCC4)cc3C(F)F)nc12` [Compound 130], the negative logarithm of the EC50 (pEC50) is 5.72 at human TLR7 (hTLR7) and 5.73 on human TLR8 (hTLR8).

For `CCCCN(CCO)c1nc(N)nc2cn(Cc3ccc(CN[C@H]4CC[C@H](CO)CC4)cc3C(F)F)nc12` [Compound 131], the pEC50 is 5.89 at human TLR7 (hTLR7) and 5.48 at human TLR8 (hTLR8).

For the molecule `CCCCN(CCO)c1nc(N)nc2cn(Cc3c(F)cc(N4CCC(N[C@@H]5CCCOC5)CC4)cc3F)nc12` [Compound 132], the pEC50 on human TLR7 (hTLR7) was 6.41; at human TLR8 (hTLR8), 5.73.

As to `CCCCN(CCO)c1nc(N)nc2cn(Cc3c(F)cc(N4CCC(NC5CC6(COC6)C5)CC4)cc3F)nc12` [Compound 133], the pEC50 at human TLR7 (hTLR7) is 6.29; at human TLR8 (hTLR8) it was 5.68.

With `CCCCN(CCO)c1nc(N)nc2cn(Cc3cccc4c3OCCN4C(=O)CNC3CCC3)nc12` [Compound 134], the pEC50 was 5.65 at human TLR7 (hTLR7) and 5.73 on human TLR8 (hTLR8).

Take `CCCCN(CCO)c1nc(N)nc2cn(Cc3ccc(CN[C@@H]4CCOC4)c4c3OCCC4)nc12` [Compound 135]: the values for the pEC50 at human TLR7 (hTLR7) and on human TLR8 (hTLR8) were 5.94 and 6.31, respectively.

`CCCCN(CCO)c1nc(N)nc2cn(Cc3ccc(CN[C@H]4CCOC4)c4c3OCCC4)nc12` [Compound 136, (S)-2-((5-Amino-2-((5-(((tetrahydrofuran-3-yl)amino)methyl)chroman-8-yl)methyl)-2H-pyrazolo[4,3-d]pyrimidin-7-yl)(butyl)amino) ethan-1-ol]: the pEC50 was 6.06 at human TLR7 (hTLR7) and 6.44 at human TLR8 (hTLR8).

With `CCCCN(CCO)c1nc(N)nc2cn(Cc3ccc(CNC4CCOCC4)c4c3OCCC4)nc12` [Compound 137], the pEC50 at human TLR7 (hTLR7) was 5.98; at human TLR8 (hTLR8), 6.40.

Regarding `CCCCN(CCO)c1nc(N)nc2cn(Cc3ccc(CN[C@H]4C[C@H](OC)C4)c4c3OCCC4)nc12` [Compound 138], the pEC50 at human TLR7 (hTLR7) was 5.85; on human TLR8 (hTLR8), 6.22.

On to `CCCCN(CCO)c1nc(N)nc2cn(Cc3ccc(CN[C@H]4CCOC[C@H]4C)cc3OC)nc12` [Compound 139], for which the negative-log EC50 (pEC50) at human TLR7 (hTLR7) is 5.91; on human TLR8 (hTLR8) it was 6.27.

As to `CCCCN(CCO)c1nc(N)nc2cn(Cc3ccc(CNC4CCC4)c4oc(C)nc34)nc12` [Compound 140, 2-((5-Amino-2-((7-((cyclobutylamino)methyl)-2-methylbenzo[d]oxazol-4-yl)methyl)-2H-pyrazolo-[4,3-d]pyrimidin-7-yl) (butyl)amino) ethan-1-ol], the pEC50 is 6.00 on human TLR7 (hTLR7) and 6.17 at human TLR8 (hTLR8).

As for `CCCCN(CCO)c1nc(N)nc2cn(Cc3ccc(CN[C@H]4C[C@H](OC)C4)c4oc(C)nc34)nc12` [Compound 141, 2-((5-amino-2-((7-((((1r,3r)-3-methoxycyclobutyl)amino)methyl)-2-methylbenzo[d]oxazol-4-yl)methyl)-2H-pyrazolo[4,3-d]pyrimidin-7-yl)(butyl)amino)ethan-1-ol], the pEC50 on human TLR7 (hTLR7) was 6.36; at human TLR8 (hTLR8), 6.38.

As for `CCCCN(CCO)c1nc(N)nc2cn(Cc3ccc(CN[C@@H]4CCOC4)c4oc(C)nc34)nc12` [Compound 142], the results for the pEC50 on human TLR7 (hTLR7) and at human TLR8 (hTLR8) were 5.79 and 6.04, respectively.

With `CCCCN(CCO)c1nc(N)nc2cn(Cc3c(OC)cc(CNCCOC)cc3OC)nc12` [Compound 143], the pEC50 on human TLR7 (hTLR7) was 5.77; on human TLR8 (hTLR8), 5.73.

Take `CCCCN(CCO)c1nc(N)nc2cn(Cc3c(OC)cc(CNC4CCOCC4)cc3OC)nc12` [Compound 144]: the pEC50 was 5.73 on human TLR7 (hTLR7) and 5.69 at human TLR8 (hTLR8).

Regarding `CCCCN(CCO)c1nc(N)nc2cn(Cc3c(OC)cc(CN[C@@H]4CCOC4)cc3OC)nc12` [Compound 145], the pEC50 on human TLR7 (hTLR7) was 5.84; at human TLR8 (hTLR8), 5.70.

In the case of `CCCCN(CCO)c1nc(N)nc2cn(Cc3c(OC)cc(CNC(C)C)cc3OC)nc12` [Compound 146], the pEC50 on human TLR7 (hTLR7) was 5.74; at human TLR8 (hTLR8) it was 5.75.

On to `CCCCN(CCO)c1nc(N)nc2cn(Cc3c(F)cc(C4=CCNC4)cc3OC)nc12` [Compound 147], for which the figures for the negative-log EC50 (pEC50) on human TLR7 (hTLR7) and on human TLR8 (hTLR8) were 5.74 and 5.69, respectively.

Turning to `CCCCN(CCO)c1nc(N)nc2cn(Cc3ccc(CNC(C)(C)C)c4c3OCCC4)nc12` [Compound 148], the pEC50 was 5.74 at human TLR7 (hTLR7) and 6.34 at human TLR8 (hTLR8).

Turning to `CCCCN(CCO)c1nc(N)nc2cn(Cc3c(F)cc(C4CCN(CCOC)CC4)cc3C#N)nc12` [Compound 149], the pEC50 was 6.25 at human TLR7 (hTLR7) and 5.74 at human TLR8 (hTLR8).

On to `CCCCN(CCO)c1nc(N)nc2cn(Cc3c(F)cc(C4CCN(C5CCOCC5)CC4)cc3C#N)nc12` [Compound 150], for which the pEC50 is 5.95 on human TLR7 (hTLR7) and 5.68 at human TLR8 (hTLR8).

As to `CCCCN(CCO)c1nc(N)nc2cn(Cc3c(F)cc(C4CCN(C(C)C)CC4)cc3C#N)nc12` [Compound 151], the negative-log EC50 (pEC50) on human TLR7 (hTLR7) is 6.21; at human TLR8 (hTLR8), 5.74.

Turning to `CCCCN(CCO)c1nc(N)nc2cn(Cc3c(F)cc(N4CCC(NC(C)C)CC4)cc3OC)nc12` [Compound 152], the pEC50 at human TLR7 (hTLR7) was 6.13; on human TLR8 (hTLR8), 5.74.

`CCCCN(CCO)c1nc(N)nc2cn(Cc3ccc(CNC4CCOC4(C)C)cc3OC)nc12` (stereo not shown) [Compound 153]: the pEC50 at human TLR7 (hTLR7) was 6.21; at human TLR8 (hTLR8) it was 6.51.

In the case of `CCCCN(CCO)c1nc(N)nc2cn(Cc3ccc(CNC4(CO)CCOCC4)cc3OC)nc12` [Compound 154], the pEC50 was 5.67 at human TLR7 (hTLR7) and 5.96 on human TLR8 (hTLR8).

`CCCCN(CCO)c1nc(N)nc2cn(Cc3ccc(CCNC4CCOCC4)cc3OC)nc12` [Compound 156]: the pEC50 at human TLR7 (hTLR7) was 5.81; at human TLR8 (hTLR8), 5.66.

Take `CCCCN(CCO)c1nc(N)nc2cn(Cc3ccc(CN[C@@H]4CCOC4)cc3)nc12` [Compound 157]: the pEC50 on human TLR7 (hTLR7) was 5.94; on human TLR8 (hTLR8) it was 6.34.

Consider `CCCCN(CCO)c1nc(N)nc2cn(Cc3ccc(CNC4CCOCC4)cc3)nc12` [Compound 158], for which the values for the negative-log EC50 (pEC50) on human TLR7 (hTLR7) and on human TLR8 (hTLR8) were 5.93 and 6.41, respectively.

Consider `CCCCN(CCO)c1nc(N)nc2cn(Cc3ccc(CNCCOC)cc3)nc12` [Compound 161], for which the pEC50 on human TLR7 (hTLR7) is 6.18; at human TLR8 (hTLR8), 6.30.

Consider `CCCCN(CCO)c1nc(N)nc2cn(Cc3ccc(CNC(C)C)cc3)nc12` [Compound 162], for which the pEC50 on human TLR7 (hTLR7) was 5.80; at human TLR8 (hTLR8) it was 6.09.
